Measurements taken from patent US12048686B2, “Compositions and methods for activating NRF2-dependent gene expression” (The University of Chicago, priority 2018, dated 2024).
“Also recorded” adds a separate entry of the source.

How the values were obtained:
IMR32 cells = assay: IMR32 viability with co-treatments (cell titer glo); type: cell-based
Description: FIG. 38. PGK1 toxicity can be rescued with metabolites that are involved with GSH biosynthesis and quenching of reactive oxygen species and methylglyoxal. […] IMR32 cells treated for 48 hr in presence of indicated drugs.
PGK1 toxicity can be rescued with metabolites that are involved with GSH biosynthesis and quenching of reactive oxygen species and methylglyoxal.
IMR32 cells were treated for 48 hrs with CBR-470-1 and/or BBGC at combinations of doses in a synergy matrix (FIG. 41). […] Viability measured using cell titer glo assay (Promega). Viability decreased at higher concentrations of CBR-470-1 and BBGC start at 5 uM. […] Sensitivity of cell lines to direct inhibition of GLO1 (which detoxifies MGO) is generally correlated with sensitivity to PGK1 inhibition with CBR-470-1-consistent with MGO buildup playing a role in toxicity.

[1] = LPS acute lung injury mouse model; type: in vivo; conditions: 50 mg/kg intraperitoneally
Description: FIG. 23. Mice treated with CBR-470-2 or vehicle (NaOH) IP and intratracheally instill LPS to induce acute lung injury.
Systemic CBR-470-2 treatment in acute lung injury mouse model reduces bronchial alveolar lavage (immune cells) cell TNF, IL1b and IL6 production (FIG. 23). C57/B6 Mice were treated with either CBR-470-2 (50 mg/kg dissolved in water and NaOH (1:1)) or vehicle (NaOH) intraperitoneally, and intratracheally instill 0.7 mg/kg of lipopolysaccharide (LPS) to induce […].

UVB skin damage model = conditions: mouse
Description: UVB Skin Damage Model. 32 5-week old Balb/c male mice were randomized into 4 groups of 8 animals such that each group had similar body weight means. Mice were prepared for removal of hair from their entire back two days prior to UVB exposure (day 3) by using an electric shaver and depilatory cream. On day 5, mice received exposure to UVB (200 mJ/cm^2) produced by a broad band UVB lamp (Dermapal UVB Rev 2) powered by a Kernel UV Phototherapy system. UVB exposure was confined to a rectangular area of ˜8 cm^2 by a lead shielding mask. UVB doses were confirmed by dosimeter measurements (Daavlin X96). Sham animals were shaved but received no UVB treatment. Mice were dosed from day 0 to study end at day 10 via oral gavage twice daily (CBR-470-2, 50 mg/kg BID PO; BARD, 3 mg/kg PO; Vehicle, 0.5% methyl cellulose/0.5% Tween80). Mice were monitored daily for body weight changes and erythema scoring from days 5 to 10. […] Blinded erythema scores were recorded by a blinded, trained investigator according to established in house scale. […]
Percent wounded area measurements. […] Red content corresponding to wounds was then quantified as a fraction of the whole imaging field and reported as percent wounded area.
Epidermal thickness measurements. […] 24 individual measurements of epidermal thickness from 8 sections spanning a 400 μm step distance were recorded per animal by a non-blinded, trained investigator. […]

Q: For `CC1(C)CC(O)CC(C)(C)N1[O]` [Tempol], which “effect of co-treatment with ROS scavenger on anti-proliferative effects of CBR-470-1” value (IMR32 cells; co-treatment with CBR-470-1) is on record?
A: The value was “does not effectively reduce anti-proliferative effects of CBR-470-1”.

Q: With `CN(C)C(=N)N=C(N)N` [metformin] as the molecule, how does the “effect of co-treatment on viability effects of PGK1 inhibition” value (IMR32 cells; across cell lines, on average, IMR32 48 hr) read?
A: The value was “do not strongly affect viability effects of PGK1 inhibition; also recorded: do not strongly effect viability effect of PGK1 inhibition”.

Q: For `O=C(O)CN[C@H]1CS(=O)(=O)C[C@@H]1S(=O)(=O)c1ccc(Cl)c(Cl)c1` [CBR-470-2], which “IL6 gene expression, lung tissue” value ([1]; LPS) is on record?
A: The value was “decreased gene expression of IL6”.

Q: What about the “IL1b production, BAL cells” value ([1]; LPS 0.7 mg/kg intratracheally) of the same molecule?
A: The value was “decreased TNF, IL6, and IL1b production”.

Q: And the “IL6 production, BAL cells” value ([1]; LPS 0.7 mg/kg intratracheally)?
A: Its value is “decreased TNF, IL6, and IL1b production; also recorded: decreased IL-6, and mRNA expression in immune cells (BAL cells)”.

Q: What about the “TNF production, BAL cells” value ([1]; LPS 0.7 mg/kg intratracheally) of the same molecule?
A: Its value is “decreased TNF, IL6, and IL1b production”.

Q: What about the “NRF2 signaling in vivo (pharmacodynamic and efficacy data)” value (UVB skin damage model) of the same molecule?
A: Its value is “capable of modulating NRF2 signaling in vivo”.
